This note sets out measurements from patent US20210032291A1, “Compstatin Analogs With Improved Pharmacokinetic Properties” (The Trustees of the University of Pennsylvania, priority 2011, published 2021).

Values after ≈ are worked out from the molar mass of the structure shown. Bounds are passed on as bounds.

The test system of series [1] is complement activation via the alternative pathway. Description: Erythrocyte hemolytic assay on plasma samples of treated cynomolgus monkeys. The format is in vivo, cynomolgus monkeys (Macaca fascicularis). The following applies: subcutaneous injection 2 mg/kg. As to the method:
(§1) Hemolytic assay. Rabbit erythrocytes were washed with phosphate-buffered saline (PBS) followed by washing with Veronal-buffered saline (VBS)^Mg+/EGTA. A 1:20 dilution was prepared in VBS buffer. Plasma samples (1:10 in VBS−100 μl) was incubated with the rabbit erythrocytes solution (50 μl) in a 96-well plate at 37° C. for 1 h. EDTA (0.2 mM-15μl) was added to stop the reaction and plate was centrifuged (2500×g 3 min). Supernatant (100μl) was transferred to a new well and optical density was measured at 405 nm. Incubation of erythrocytes with water or buffer was used as positive (100% lysis) and negative (0% lysis) control, respectively.
(§2) Analyses. Analysis of plasma samples, determination of plasma half-life and complement inhibitory activity in plasma were performed as described in Example 5.

Series [2] is described as follows: in vivo. The following applies: cynomolgus monkey, iv, 2 mg/kg.
Description: Primate studies and sample collection. Evaluation of plasma half-life and generation of major metabolites was performed at the Simian Conservation Breeding and Research Center (SICONBREC, Makati City, Philippines) in cynomolgus monkeys (Macaca fascicularis). […] Blood samples (1-2 mL) were collected immediately before and at various time points after compound injection (2, 5 and 30 min; 1, 2, 4, 6, and 24 hours) in EDTA-coated Vacutainer tubes to prevent coagulation and complement activation, and centrifuged at ˜800×g for 10 min to obtain plasma. Plasma samples were immediately frozen and stored for further analysis. All NHP studies were performed in accordance with animal welfare laws and regulations.
Analysis of plasma samples. Prior to analysis by UPLC-MS, compstatin analogs in the plasma samples were extracted by solid phase extraction (SPE) in a 96-well plate format (HLB Oasis 30 μm, 10 mg; Waters, Milford, Mass.). […] Eluted peptides were directly analyzed by HDMS; the ESI source capillary voltage was set to 3.2 kV, the cone voltage to 30 V and the source temperature to 120° C. […]
Determination of plasma half-life. […] All calibration samples were subjected to SPE and measured using UPLC-HDMS as described above. […] For the pharmacokinetic analysis, the plasma concentration (Cp) at each time point was calculated from the extracted peak area of each peptide using the corresponding standard curve.
Series [3] deals with complement activation via the alternative pathway. Description: Erythrocyte hemolytic assay on plasma samples of treated baboon. The following applies: intramuscular injection 2 mg/kg. Type of series: in vivo. The method, then: as §1
(§3) Extraction of compstatin analog from plasma samples and LC-MS/MS analysis were performed as described in Example 7. A hemolytic assay was performed as described in Example 5.

Series [4] deals with classical pathway of complement. Description: ELISA inhibition of classical pathway complement activation. The format is biochemical. The following applies: read-out: IC50, peptide concentration to reach 50% inhibition of classical pathway complement activation; Table 1. As to the method:
Inhibition of complement activation. The ability of the compstatin analogs to inhibit the activation of the classical pathway of complement was assessed by ELISA as described elsewhere (Katragadda et al., 2006, supra; Mallik et al., 2005, supra). The percent inhibition was plotted against the peptide concentration, and the resulting data set was fitted to the logistic dose-response function using Origin 8.0 software. IC50 values were obtained from the fitted parameters that produced the lowest χ2 value. Each analog was assayed at least three times.
For orientation: ELISA stands for enzyme-linked immunosorbent assay.

The conditions of series [5]: 5 min, pH 7.4.
Description: (§4) Approximately 5 mg of each peptide (acetate form) was weighed out into separate LoBind Eppendorf tubes and 50 μL water for injection (WFI) was added to each tube. Each sample was centrifuged at 13000 rpm for 2 min and diluted for measuring the optical density (OD) at 280 nm using a NanoDrop 2000 spectrophotometer (ThermoScientific, Wilmington, Del.). Each concentrated sample was diluted 1:20 into Dulbecco's phosphate buffered saline (DPBS, without potassium and calcium; Invitrogen, Carlsbad, Calif.). The samples were monitored for precipitation, and each sample was vortexed for 5 min and centrifuged at 13000 rpm for 2 min. The OD of each DPBS supernatant was measured to determine peptide concentration at saturation.
(§5) In addition, the ultra performance liquid chromatography (UPLC) retention time of these peptides on a C18 column was measured to reflect their apparent relative hydrophobicity (Table 3).
For another series, the target named is T1, C3b (Homo sapiens, UniProt P01024).
T1 construct: Biotinylated C3b was captured site-specifically on a streptavidin chip
T1 sequence (P01024 23-667 limits assumed): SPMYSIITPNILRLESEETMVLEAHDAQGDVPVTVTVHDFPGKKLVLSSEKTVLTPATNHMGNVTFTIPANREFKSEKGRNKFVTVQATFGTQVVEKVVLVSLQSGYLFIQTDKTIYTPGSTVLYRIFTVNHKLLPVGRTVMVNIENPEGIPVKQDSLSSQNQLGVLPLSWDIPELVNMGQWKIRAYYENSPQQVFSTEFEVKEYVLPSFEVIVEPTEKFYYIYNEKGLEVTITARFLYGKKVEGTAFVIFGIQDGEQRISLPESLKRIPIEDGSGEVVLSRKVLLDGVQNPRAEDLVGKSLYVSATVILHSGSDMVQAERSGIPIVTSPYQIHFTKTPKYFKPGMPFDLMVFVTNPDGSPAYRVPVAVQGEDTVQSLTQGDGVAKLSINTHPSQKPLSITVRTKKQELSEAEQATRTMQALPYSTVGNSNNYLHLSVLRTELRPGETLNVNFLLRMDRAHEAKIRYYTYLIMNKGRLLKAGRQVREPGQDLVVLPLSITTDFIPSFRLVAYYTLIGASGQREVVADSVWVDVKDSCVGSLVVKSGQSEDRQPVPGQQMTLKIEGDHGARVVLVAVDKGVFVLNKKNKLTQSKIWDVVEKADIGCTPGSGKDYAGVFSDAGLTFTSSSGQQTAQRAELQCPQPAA
T1 sequence (P01024 749-1663 partner limits assumed): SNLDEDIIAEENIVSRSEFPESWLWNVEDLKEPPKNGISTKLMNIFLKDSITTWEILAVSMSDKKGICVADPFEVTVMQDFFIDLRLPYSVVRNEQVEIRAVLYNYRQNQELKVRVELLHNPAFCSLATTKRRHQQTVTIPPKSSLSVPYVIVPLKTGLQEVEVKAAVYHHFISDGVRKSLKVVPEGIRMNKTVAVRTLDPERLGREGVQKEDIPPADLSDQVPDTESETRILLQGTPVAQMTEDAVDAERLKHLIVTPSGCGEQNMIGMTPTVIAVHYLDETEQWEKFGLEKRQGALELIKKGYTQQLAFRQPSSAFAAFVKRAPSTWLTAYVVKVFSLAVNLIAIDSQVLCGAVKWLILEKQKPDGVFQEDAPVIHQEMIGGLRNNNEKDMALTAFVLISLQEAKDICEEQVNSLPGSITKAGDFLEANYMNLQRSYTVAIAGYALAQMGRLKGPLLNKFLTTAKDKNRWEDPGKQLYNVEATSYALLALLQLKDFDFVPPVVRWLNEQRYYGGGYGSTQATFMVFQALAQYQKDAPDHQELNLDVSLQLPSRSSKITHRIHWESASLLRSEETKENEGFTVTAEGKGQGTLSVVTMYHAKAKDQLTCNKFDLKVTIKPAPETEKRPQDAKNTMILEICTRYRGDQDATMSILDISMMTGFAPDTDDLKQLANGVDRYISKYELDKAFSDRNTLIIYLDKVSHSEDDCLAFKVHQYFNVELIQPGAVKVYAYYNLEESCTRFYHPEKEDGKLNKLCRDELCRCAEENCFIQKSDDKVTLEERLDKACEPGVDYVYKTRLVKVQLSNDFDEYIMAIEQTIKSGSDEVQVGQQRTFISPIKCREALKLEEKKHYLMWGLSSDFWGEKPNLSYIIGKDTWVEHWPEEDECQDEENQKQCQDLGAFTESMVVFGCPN
Description: SPR kinetic analysis of binding to immobilized C3b (Biacore, single cycle kinetics). The method, boiled down:
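Biotinylated C3b was captured on streptavidin at about 3000 and 5000 RU, against untreated reference cells, in PBS pH 7.4 with 0.005% Tween-20. Five rising concentrations were injected in a single cycle. KD = kd/ka came from a global 1:1 Langmuir fit, with at least two runs.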
Background: Surface plasmon resonance follows binding to a sensor surface in real time, without labels.

The nature of a further series: in vitro. The following applies: human, plasma.
Series [6] can be described thus: in vivo. The arrangement: species or system baboon. The following applies: 2 mg/kg. The method, then: A juvenile baboon was injected intramuscularly with 2 mg/kg Cp40 (SEQ ID NO:18) Blood samples for the LC-MS/MS assay were collected in 1-ml plastic tubes containing 50 μg lepirudin, and centrifuged at 2000 g for 20 min at 4° C. for plasma separation. Plasma samples were stored at −70° C. Blood samples were collected at pre-determined time intervals after injection of the analog. Samples were treated with SPE and analyzed using LC-MS/MS. Calibration curves were created using standard peptides at various concentrations in plasma to determine peptide concentration in each sample.
as §3

Series [7] in a line: Solubility in WFI and DPBS; UPLC C18 retention time as hydrophobicity. The following applies: UPLC analysis on a C18 column.
Description: as §4, §5
Series [8] in a line: in vivo. The arrangement: species or system cynomolgus monkeys (Macaca fascicularis). The following applies: cynomolgus monkey. The method, then: Primate studies and sample collection. […] Two healthy animals were used for each route of administration. The animals were sedated and injected subcutaneously with 2 mg/kg of the compound or orally by intragastric gavage with 4 mg/kg of the compound.
as §2

Description for in vitro: Plasma stability. Fresh human plasma containing lepirudin (3.75 units/ml) was incubated at 37° C. with Cp30 (SEQ ID NO:7), Cp40 (SEQ ID NO:18) or control peptide 2B at a final concentration of 20 μM each. Samples of 100 μL were taken for solid phase extraction. A 96-well plate HLB Oasis 30 μm 10 mg (Waters, Milford, Mass.) was employed for extraction. The SPE material was conditioned by addition of 500 μL each of methanol and ACN followed by addition of 500 μL of milli-Q water. Sample was diluted 1:1 with 4% H3PO4. After loading the sample, washing was carried out twice with 500 μL of 10% ACN in 0.1% formic acid. Sample was eluted with 200 μL of 65% ACN in 0.1% formic acid and collected in the Eppendorf LoBind collection plate. Sample for UPLC-MS was diluted 1:10 in milli-Q water with 0.1% formic acid. Cp20 (SEQ ID NO:3) was spiked in each sample before SPE as an internal standard.
UPLC-MS analysis. UPLC-MS analysis was performed on a SYNAPT HDMS (Waters, Milford, Mass.) equipped with an ESI source controlled by MassLynx 4.1 software (Waters). Each sample was injected in quadruplicates. An online ACQUITY UPLC (Waters) system was used for peptide separation by reversed-phase liquid chromatography. The capillary voltage was 3.2 kV, the cone voltage was 30 V and the source temperature was 120° C. [Glu1]-fibrinogen peptide was used for lock-mass correction with a sampling rate of 30 s. […]
Description for physchem: as §4, §5

What is called Cmax is the highest concentration seen after dosing. One may read the amount remaining as the share of the starting amount still present when the sample was taken. Lower therefore signals a greater loss. The term solubility denotes how much of the substance goes into solution per volume. Read a high solubility as much dissolved substance. Take `CC[C@H](C)[C@H](NC(=O)[C@H](N)Cc1ccc(O)cc1)C(=O)N[C@H]1CSSC[C@@H](C(=O)N(C)[C@H](C(N)=O)[C@@H](C)CC)NC(=O)[C@H](CCCNC(=N)N)NC(=O)[C@H](Cc2c[nH]cn2)NC(=O)[C@H](C)NC(=O)CN(C)C(=O)[C@H](Cc2c[nH]c3ccccc23)NC(=O)[C@H](CC(=O)O)NC(=O)[C@H](CCC(N)=O)NC(=O)[C@H](Cc2cn(C)c3ccccc23)NC(=O)[C@H](C(C)C)NC1=O` [peptide 14, dTyr-Ile-[Cys-Val-Trp(Me)-Gln-Asp-Trp-Sar-Ala-His-Arg-Cys]-mIle-NH2]: the “Complement inhibitory activity versus analog concentration in plasma samples” value in series [1] and in [3] was “closely track the concentration of analog” each time. In addition, the Cmax in the series “in vivo [2]” was roughly 28 µM; in the series “in vivo [6]” (monkey, im), roughly 10 µM; in “in vivo [8]” (sc, 2 mg/kg), roughly 12.5 µM. In series [4], the IC50 worked out at 66 ± 8 nM. For the same compound, the “Solubility DPBS pH7.4” value in [5] amounted to 0.8 mg/mL. The “ka: association rate” value at C3b (Table 1, N-terminal analogs) is listed as 2.8 ± 0.5 10^6/Ms; on C3b (Table 2, Cp40-based analogs), 2.8 ± 0.6 10^6/Ms. In addition, the share remaining at 120 h, 20 μM in the series “in vitro” was greater than 55%. Also, the “Time to peak plasma concentration” value in “in vivo [6]” is 5 to 6 h; in the series “in vivo [8]” (sc, 2 mg/kg) it was 4 to 5 h. Besides, the “Hydrophobicity Retention Time” value in series [7] came out at 4.73 min. The “Time to reach the stated plasma concentration” value in “in vivo [8]” (po, 4 mg/kg) is listed as “within one hour”. In addition, in the series “in vivo [8]” (po, 4 mg/kg), the level at time molar is roughly 0.023 µM. The compound further gave a solubility in “physchem” greater than 50000 µg/mL. Besides, the solubility at 5 min in the series “physchem” (pH 7.4) is 800 µg/mL (≈ 447 µM).
